Results taken from ChEMBL document CHEMBL4130451, “Design and Synthesis of N-Aryl Phenoxyethoxy Pyridinones as Highly Selective and CNS Penetrant mGlu3 NAMs” (ACS Med Chem Lett, 2017).
pEC50, pIC50: −log10 of the molar value. Converted amounts (≈) assume the structure as drawn. The source made the active and inactive calls. The calls are words filed in the database; no cut-off is given here.

Assays:
[1] = target: Metabotropic glutamate receptor 3 (Rattus norvegicus, UniProt P31422); assay: Negative allosteric modulation of rat mGlu3 receptor expressed in TREX cells coexpressing Galpha15 assessed as inhibition of glutamate induced-calcium mobilization preincubated for 2.3 mins followed by glutamate addition measured for 2.6 mins by Fluo-4 AM dye based fluorescence assay; assay type: functional, cell-based
[2] = target: Metabotropic glutamate receptor 5 (Rattus norvegicus, UniProt P31424); assay: Positive allosteric modulation of rat mGlu5 receptor expressed in HEK293A cells assessed as increase in glutamate induced-calcium mobilization preincubated for 2.3 mins followed by glutamate addition measured for 1.9 mins by Fluo-4 AM dye based fluorescence assay; assay type: functional, cell-based
[3] = target: Metabotropic glutamate receptor 2 (Rattus norvegicus, UniProt P31421); assay: Negative allosteric modulation of rat mGlu2 receptor expressed in HEK293 cells coexpressing Galpha15 assessed as inhibition of glutamate induced-calcium mobilization preincubated for 2.3 mins followed by glutamate addition measured for 1.9 mins by Fluo-4 AM dye based fluorescence assay; assay type: functional, cell-based
[4] = target: Cytochrome P450 3A4 (Homo sapiens, UniProt P08684); assay: Inhibition of CYP3A4 in human liver microsomes using midazolam as substrate after 15 mins in presence of NADPH by LC/MS/MS analysis; assay type: ADME
[5] = target: Cytochrome P450 2D6 (Homo sapiens, UniProt P10635); assay: Inhibition of CYP2D6 in human liver microsomes using dextromethorphan as substrate after 15 mins in presence of NADPH by LC/MS/MS analysis; assay type: ADME
[6] = Fraction unbound in rat brain homogenate at 5 uM after 6 hrs by equilibrium dialysis based LC/MS/MS analysis; assay type: ADME, tissue-based
[7] = Brain to plasma partition coefficient, Kp of the compound in rat; assay type: ADME
[8] = target: Metabotropic glutamate receptor 1 (Homo sapiens) (UniProt Q13255); assay: Negative allosteric modulation of human mGlu1 receptor expressed in TREX293 cells assessed as inhibition of glutamate induced-calcium mobilization preincubated for 2.3 mins followed by glutamate addition measured for 2.6 mins by Fluo-4 AM dye based fluorescence assay; assay type: functional, cell-based
[9] = target: Metabotropic glutamate receptor 8 (Rattus norvegicus) (UniProt P70579); assay: Negative allosteric modulation of rat mGlu8 receptor expressed in HEK/GIRK cells assessed as inhibition of glutamate induced-calcium mobilization preincubated for 2.3 mins followed by glutamate addition measured for 2.6 mins by Fluo-4 AM dye based fluorescence assay; assay type: functional, cell-based
[10] = Kinetic solubility of the compound in PBS at pH 7.4; assay type: physicochemical; conditions: read-out: Kinetic_solubility
[11] = Unbound brain to plasma concentration ratio in mouse; assay type: ADME; conditions: read-out: K(p,uu,brain)
[12] = Brain to plasma partition coefficient, Kp of the compound in Harlan CD-1 mouse at 3 mg/kg, ip by LC/MS-MS analysis; assay type: ADME, organism-based
[13] = Ratio of drug uptake in Harlan CD-1 mouse brain at 3 mg/kg, ip to IC50 for negative allosteric modulation of rat mGlu3 receptor expressed in TREX cells coexpressing Galpha15; assay type: ADME, organism-based; conditions: in vivo
[14] = target: Adenosine receptor A2a (Homo sapiens) (UniProt P29274); assay: Inhibition of human adenosine A2a receptor at 10 uM relative to control
[15] = target: Beta-1 adrenergic receptor (Homo sapiens) (UniProt P08588); assay: Inhibition of human adrenergic beta1 receptor at 10 uM relative to control
[16] = target: Beta-2 adrenergic receptor (Homo sapiens) (UniProt P07550); assay: Inhibition of human adrenergic beta2 receptor at 10 uM relative to control
[17] = target: Endothelin receptor type B (Homo sapiens) (UniProt P24530); assay: Inhibition of human endothelin B receptor at 10 uM relative to control
[18] = organism: Rattus norvegicus; assay: Inhibition of rat central GABA-A receptor flunitrazepam site at 10 uM relative to control
[19] = organism: Rattus norvegicus; assay: Inhibition of rat central GABA-A receptor muscimol site at 10 uM relative to control
[20] = target: Glucocorticoid receptor (Homo sapiens) (UniProt P04150); assay: Inhibition of human glucocorticoid receptor at 10 uM relative to control
[21] = target: Glutamate NMDA receptor (Rattus norvegicus) (UniProt P35439+Q00959+Q00960+Q00961+Q62645+Q8VHN2+Q9R1M7); assay: Inhibition of rat glutamate NMDA receptor agonist binding site at 10 uM relative to control; assay type: protein-complex assay
[22] = target: Histamine H3 receptor (Homo sapiens) (UniProt Q9Y5N1); assay: Inhibition of human histamine H3 receptor at 10 uM relative to control
[23] = organism: Rattus norvegicus; assay: Inhibition of central rat I2 receptor imidazoline binding site at 10 uM relative to control
[24] = target: Interleukin-1 receptor type 1 (Mus musculus) (UniProt P13504); assay: Inhibition of mouse IL1 receptor at 10 uM relative to control
[25] = target: Cysteinyl leukotriene receptor 1 (Homo sapiens) (UniProt Q9Y271); assay: Inhibition of human cysteinyl cys leukotriene receptor 1 at 10 uM relative to control
[26] = target: Melatonin receptor type 1A (Homo sapiens) (UniProt P48039); assay: Inhibition of human MT1 receptor at 10 uM relative to control
[27] = target: Muscarinic acetylcholine receptor M1 (Homo sapiens) (UniProt P11229); assay: Inhibition of human muscarinic M1 receptor at 10 uM relative to control
[28] = target: Muscarinic acetylcholine receptor M2 (Homo sapiens) (UniProt P08172); assay: Inhibition of human muscarinic M2 receptor at 10 uM relative to control
[29] = target: Muscarinic acetylcholine receptor M3 (Homo sapiens) (UniProt P20309); assay: Inhibition of human muscarinic M3 receptor at 10 uM relative to control
[30] = target: Neuropeptide Y receptor type 1 (Homo sapiens) (UniProt P25929); assay: Inhibition of human […] Y1 receptor at 10 uM relative to control
[31] = target: Acetylcholine receptor subunit alpha (Homo sapiens) (UniProt P02708); assay: Inhibition of human alpha1 nAChR bungarotoxin site at 10 uM relative to control
[32] = target: Delta-type opioid receptor (Homo sapiens) (UniProt P41143); assay: Inhibition of human delta 1 opioid receptor at 10 uM relative to control
[33] = target: Prostaglandin E2 receptor EP4 subtype (Homo sapiens) (UniProt P35408); assay: Inhibition of human EP4 receptor at 10 uM relative to control
[34] = organism: Rattus norvegicus; assay: Inhibition of rat P2Y receptor at 10 uM relative to control
[35] = target: 5-hydroxytryptamine receptor 2B (Homo sapiens) (UniProt P41595); assay: Inhibition of human 5-HT2B receptor at 10 uM relative to control
[36] = organism: Rattus norvegicus; assay: Inhibition of rat sodium channel site 2 at 10 uM relative to control
[37] = organism: Rattus norvegicus; assay: Inhibition of rat thyroid hormone receptor at 10 uM relative to control
[38] = target: Sodium-dependent dopamine transporter (Homo sapiens) (UniProt Q01959); assay: Inhibition of human DAT at 10 uM relative to control
[39] = organism: Rattus norvegicus; assay: Inhibition of rat GABA receptor at 10 uM relative to control
[40] = target: Sodium-dependent serotonin transporter (Homo sapiens) (UniProt P31645); assay: Inhibition of human SERT at 10 uM relative to control

Glucocorticoid receptor (Homo sapiens), sequence (P04150 whole entry): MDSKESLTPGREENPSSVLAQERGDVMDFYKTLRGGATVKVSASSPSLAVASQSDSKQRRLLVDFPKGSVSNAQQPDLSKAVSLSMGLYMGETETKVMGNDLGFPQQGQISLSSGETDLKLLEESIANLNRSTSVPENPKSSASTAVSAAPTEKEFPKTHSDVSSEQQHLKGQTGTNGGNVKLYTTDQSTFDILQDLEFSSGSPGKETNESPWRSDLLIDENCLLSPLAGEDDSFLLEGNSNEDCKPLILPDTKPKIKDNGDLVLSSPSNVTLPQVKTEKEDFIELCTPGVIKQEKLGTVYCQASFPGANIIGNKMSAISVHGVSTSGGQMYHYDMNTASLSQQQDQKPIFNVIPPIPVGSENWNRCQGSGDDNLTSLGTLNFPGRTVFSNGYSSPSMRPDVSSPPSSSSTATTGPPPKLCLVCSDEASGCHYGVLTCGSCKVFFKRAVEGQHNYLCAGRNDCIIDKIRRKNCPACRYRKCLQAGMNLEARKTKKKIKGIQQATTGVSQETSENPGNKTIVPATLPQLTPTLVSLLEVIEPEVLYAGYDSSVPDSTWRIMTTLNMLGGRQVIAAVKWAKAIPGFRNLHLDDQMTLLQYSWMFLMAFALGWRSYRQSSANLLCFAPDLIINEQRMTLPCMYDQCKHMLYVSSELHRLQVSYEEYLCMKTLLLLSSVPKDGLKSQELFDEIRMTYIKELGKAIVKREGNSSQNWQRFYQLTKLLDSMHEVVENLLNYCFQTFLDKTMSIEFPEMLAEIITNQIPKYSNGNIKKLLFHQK
Histamine H3 receptor (Homo sapiens), sequence (Q9Y5N1 whole entry): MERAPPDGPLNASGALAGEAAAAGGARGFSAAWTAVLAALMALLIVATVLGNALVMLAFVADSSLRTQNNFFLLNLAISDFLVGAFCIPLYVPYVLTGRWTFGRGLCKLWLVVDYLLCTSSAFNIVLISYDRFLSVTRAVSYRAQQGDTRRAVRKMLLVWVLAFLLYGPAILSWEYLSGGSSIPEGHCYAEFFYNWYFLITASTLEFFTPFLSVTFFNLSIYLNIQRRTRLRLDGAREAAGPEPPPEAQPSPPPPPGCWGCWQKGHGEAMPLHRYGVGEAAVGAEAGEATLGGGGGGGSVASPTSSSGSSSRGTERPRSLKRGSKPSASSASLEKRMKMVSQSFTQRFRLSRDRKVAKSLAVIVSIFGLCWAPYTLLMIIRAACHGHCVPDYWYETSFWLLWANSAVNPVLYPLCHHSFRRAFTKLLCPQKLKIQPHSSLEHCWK
Metabotropic glutamate receptor 5, sequence (P31424 whole entry): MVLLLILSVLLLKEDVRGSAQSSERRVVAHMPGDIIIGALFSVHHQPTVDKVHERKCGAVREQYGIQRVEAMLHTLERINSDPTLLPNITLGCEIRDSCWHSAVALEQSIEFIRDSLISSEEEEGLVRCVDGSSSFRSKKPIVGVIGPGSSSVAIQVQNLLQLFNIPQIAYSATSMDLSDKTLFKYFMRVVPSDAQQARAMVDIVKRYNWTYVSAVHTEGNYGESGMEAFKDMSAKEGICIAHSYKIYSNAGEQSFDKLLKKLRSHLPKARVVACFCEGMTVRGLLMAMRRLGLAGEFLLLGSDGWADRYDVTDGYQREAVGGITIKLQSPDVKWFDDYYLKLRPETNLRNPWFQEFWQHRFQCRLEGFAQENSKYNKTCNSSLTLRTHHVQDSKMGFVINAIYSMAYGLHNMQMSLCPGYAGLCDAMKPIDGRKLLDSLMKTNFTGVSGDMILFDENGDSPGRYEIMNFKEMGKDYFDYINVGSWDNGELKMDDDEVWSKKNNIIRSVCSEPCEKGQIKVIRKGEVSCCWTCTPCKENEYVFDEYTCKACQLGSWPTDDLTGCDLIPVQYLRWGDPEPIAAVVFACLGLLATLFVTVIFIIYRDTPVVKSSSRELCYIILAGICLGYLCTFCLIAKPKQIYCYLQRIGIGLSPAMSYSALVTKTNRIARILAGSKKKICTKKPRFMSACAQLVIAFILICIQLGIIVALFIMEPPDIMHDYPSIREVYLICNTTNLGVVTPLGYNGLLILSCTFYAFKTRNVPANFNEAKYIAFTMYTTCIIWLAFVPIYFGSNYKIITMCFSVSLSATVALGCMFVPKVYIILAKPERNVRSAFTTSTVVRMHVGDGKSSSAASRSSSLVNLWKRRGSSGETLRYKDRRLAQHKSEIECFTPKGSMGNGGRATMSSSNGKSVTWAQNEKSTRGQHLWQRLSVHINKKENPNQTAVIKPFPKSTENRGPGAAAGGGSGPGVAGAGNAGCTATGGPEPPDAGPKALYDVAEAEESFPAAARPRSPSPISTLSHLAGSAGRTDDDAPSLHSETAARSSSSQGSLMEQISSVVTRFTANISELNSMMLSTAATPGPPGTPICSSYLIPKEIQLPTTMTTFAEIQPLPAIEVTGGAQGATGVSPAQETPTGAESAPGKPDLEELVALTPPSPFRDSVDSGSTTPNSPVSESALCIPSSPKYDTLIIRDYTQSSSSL
Metabotropic glutamate receptor 3, sequence (P31422 whole entry): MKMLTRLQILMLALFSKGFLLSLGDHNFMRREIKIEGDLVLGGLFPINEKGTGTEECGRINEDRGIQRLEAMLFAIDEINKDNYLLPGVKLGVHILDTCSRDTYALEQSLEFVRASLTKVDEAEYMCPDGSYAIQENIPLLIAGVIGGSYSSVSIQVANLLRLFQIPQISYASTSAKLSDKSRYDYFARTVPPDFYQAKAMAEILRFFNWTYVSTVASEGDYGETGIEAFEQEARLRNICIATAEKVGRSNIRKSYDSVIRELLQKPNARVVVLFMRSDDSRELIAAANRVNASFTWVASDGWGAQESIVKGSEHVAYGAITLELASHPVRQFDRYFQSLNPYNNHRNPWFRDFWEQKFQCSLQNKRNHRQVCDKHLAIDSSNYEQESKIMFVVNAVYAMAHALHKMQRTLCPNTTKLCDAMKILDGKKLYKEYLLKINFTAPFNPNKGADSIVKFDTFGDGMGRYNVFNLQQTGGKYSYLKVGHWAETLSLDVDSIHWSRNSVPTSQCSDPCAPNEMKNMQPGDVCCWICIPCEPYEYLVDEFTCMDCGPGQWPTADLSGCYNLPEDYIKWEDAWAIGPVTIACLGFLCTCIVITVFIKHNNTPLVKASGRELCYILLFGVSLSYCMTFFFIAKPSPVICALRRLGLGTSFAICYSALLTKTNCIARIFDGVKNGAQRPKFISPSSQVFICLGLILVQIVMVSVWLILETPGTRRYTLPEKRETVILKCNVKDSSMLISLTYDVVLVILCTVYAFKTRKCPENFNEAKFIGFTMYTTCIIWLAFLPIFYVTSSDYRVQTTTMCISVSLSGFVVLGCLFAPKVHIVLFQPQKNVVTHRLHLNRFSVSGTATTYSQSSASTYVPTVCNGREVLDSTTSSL
Cysteinyl leukotriene receptor 1 (Homo sapiens), sequence (Q9Y271 whole entry): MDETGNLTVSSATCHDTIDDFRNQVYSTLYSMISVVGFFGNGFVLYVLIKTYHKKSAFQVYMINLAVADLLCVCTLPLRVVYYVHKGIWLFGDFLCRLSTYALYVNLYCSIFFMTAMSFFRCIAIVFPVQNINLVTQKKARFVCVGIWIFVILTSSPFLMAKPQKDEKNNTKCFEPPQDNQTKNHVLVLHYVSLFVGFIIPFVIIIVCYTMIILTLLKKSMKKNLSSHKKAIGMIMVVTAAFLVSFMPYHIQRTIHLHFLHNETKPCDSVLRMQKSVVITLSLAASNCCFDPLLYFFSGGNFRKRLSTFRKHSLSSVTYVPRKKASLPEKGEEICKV
Neuropeptide Y receptor type 1 (Homo sapiens), sequence (P25929 whole entry): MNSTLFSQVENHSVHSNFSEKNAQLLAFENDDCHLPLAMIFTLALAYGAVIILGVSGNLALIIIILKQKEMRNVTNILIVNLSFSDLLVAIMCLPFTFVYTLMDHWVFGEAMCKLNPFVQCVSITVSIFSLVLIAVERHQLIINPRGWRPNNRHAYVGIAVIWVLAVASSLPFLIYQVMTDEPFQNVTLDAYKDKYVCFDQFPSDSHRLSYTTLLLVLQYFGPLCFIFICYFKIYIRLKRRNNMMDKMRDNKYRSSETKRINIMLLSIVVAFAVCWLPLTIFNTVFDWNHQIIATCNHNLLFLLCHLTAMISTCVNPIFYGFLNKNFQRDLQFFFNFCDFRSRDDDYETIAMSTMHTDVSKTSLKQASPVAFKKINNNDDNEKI
Delta-type opioid receptor (Homo sapiens), sequence (P41143 whole entry): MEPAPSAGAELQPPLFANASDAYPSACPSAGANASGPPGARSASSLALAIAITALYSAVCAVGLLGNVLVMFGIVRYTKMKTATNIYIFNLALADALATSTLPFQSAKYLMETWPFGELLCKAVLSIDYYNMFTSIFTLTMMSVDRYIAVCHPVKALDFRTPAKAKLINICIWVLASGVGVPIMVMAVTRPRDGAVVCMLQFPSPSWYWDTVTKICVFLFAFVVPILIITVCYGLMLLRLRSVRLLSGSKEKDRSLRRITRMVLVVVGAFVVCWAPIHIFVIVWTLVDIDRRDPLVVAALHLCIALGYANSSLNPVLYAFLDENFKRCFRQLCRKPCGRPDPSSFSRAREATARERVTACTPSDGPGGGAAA
Acetylcholine receptor subunit alpha (Homo sapiens), sequence (P02708 whole entry): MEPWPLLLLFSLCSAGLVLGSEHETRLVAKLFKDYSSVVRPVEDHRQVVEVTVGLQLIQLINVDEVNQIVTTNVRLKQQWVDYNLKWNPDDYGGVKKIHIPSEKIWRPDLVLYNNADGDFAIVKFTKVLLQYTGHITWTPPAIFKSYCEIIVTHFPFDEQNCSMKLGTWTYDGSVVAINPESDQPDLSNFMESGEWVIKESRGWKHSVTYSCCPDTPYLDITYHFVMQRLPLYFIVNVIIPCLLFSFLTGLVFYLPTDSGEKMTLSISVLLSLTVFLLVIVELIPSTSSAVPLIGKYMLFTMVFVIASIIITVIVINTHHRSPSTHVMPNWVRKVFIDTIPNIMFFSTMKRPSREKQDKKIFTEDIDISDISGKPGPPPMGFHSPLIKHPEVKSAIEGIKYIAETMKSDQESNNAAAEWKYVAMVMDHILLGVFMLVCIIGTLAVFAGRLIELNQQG

SMILES: C[C@@H](COc1ccn(-c2ccc(F)cc2)c(=O)c1)Oc1ccccc1
- pIC50 [1]: 6.61
- pEC50 [2]: < 4.52
- pIC50 [3]: < 4.52
- pIC50 [4]: < 4.52
- pIC50 [5]: < 4.52
- fraction unbound at 6 h, 5 µM [6]: 0.06
- Kp [7]: 1.15
- inhibition [8]: inactive
- inhibition [9]: inactive
- solubility kinetic [10]: 98 µM (≈ 33.3 µg/mL)
- Kp uu [11]: 0.26
- Kp [12]: 1.2
- Ratio [13]: 5
- inhibition [14]: > 50%
- inhibition [15]: > 50%
- inhibition [16]: > 50%
- inhibition [17]: > 50%
- inhibition [18]: > 50%
- inhibition [19]: > 50%
- inhibition [20]: > 50%
- inhibition [21]: > 50%
- inhibition [22]: > 50%
- inhibition [23]: > 50%
- inhibition [24]: > 50%
- inhibition [25]: > 50%
- inhibition [26]: > 50%
- inhibition [27]: > 50%
- inhibition [28]: > 50%
- inhibition [29]: > 50%
- inhibition [30]: > 50%
- inhibition [31]: > 50%
- inhibition [32]: > 50%
- inhibition [33]: > 50%
- inhibition [34]: > 50%
- inhibition [35]: > 50%
- inhibition [36]: > 50%
- inhibition [37]: > 50%
- inhibition [38]: > 50%
- inhibition [39]: > 50%
- inhibition [40]: > 50%
